Measurements published in patent publication US20260345590A1, “COMBINATIONS OF ESTROGEN RECEPTOR DEGRADERS AND AKT INHIBITORS” (Arvinas Operations, Inc., priority 2023, published 2026).

Legend:
AKT isoforms = details: cited from earlier work
[1] = Biopharmaceutics Classification System classification; format: physicochemical; details: BCS Class IV
MCF7 cells = assay: Dose-Response Matrix Assay (cell viability, Cell-Titer Glo, Combenefit synergy analysis); format: cell-based; details: 8-point curve 100 to 0.046 nM, Day 5
Procedure: Cells were seeded at 2×10^3 cells in 200 μl of media per well in 96 well plates and incubated overnight at 37 °C. […] At Day 5 cell viability was measured using Cell-Titer Glo and CTG data were analyzed with the Combenefit Software (5).

ER = target: T1, ER (Homo sapiens, UniProt P03372); assay: degradation of the ER
T1 construct: cells or constructs not described in excerpts
T1 sequence (P03372 1-595): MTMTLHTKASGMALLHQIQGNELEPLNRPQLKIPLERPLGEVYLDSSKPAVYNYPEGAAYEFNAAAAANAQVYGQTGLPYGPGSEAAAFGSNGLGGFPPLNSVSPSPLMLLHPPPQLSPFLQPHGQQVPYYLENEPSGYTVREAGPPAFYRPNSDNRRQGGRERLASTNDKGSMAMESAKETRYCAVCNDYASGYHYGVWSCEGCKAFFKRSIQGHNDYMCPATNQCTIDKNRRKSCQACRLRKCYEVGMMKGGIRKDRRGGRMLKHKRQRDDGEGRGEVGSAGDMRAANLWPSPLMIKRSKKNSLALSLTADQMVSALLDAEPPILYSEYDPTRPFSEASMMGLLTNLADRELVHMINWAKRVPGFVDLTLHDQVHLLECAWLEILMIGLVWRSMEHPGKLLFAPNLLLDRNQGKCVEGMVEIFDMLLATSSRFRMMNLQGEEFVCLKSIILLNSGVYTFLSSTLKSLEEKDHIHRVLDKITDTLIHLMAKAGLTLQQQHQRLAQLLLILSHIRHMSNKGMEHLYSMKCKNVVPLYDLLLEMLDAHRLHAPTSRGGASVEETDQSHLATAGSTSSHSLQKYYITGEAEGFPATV

[2] = exposure of epimer Compound C relative to Compound A (preclinical data); format: in vivo

Structure (SMILES): Cn1ncc(Cl)c1-c1cc(C(=O)N[C@H](CN)Cc2cccc(F)c2)sc1Cl [Afuresertib, N-[(2S)-1-amino-3-(3-fluorophenyl)propan-2-yl]-5-chloro-4-(4-chloro-2-methyl-3-pyrazolyl)-2-thiophenecarboxamide]
- mode of AKT kinase inhibition (AKT isoforms): reversible, ATP-competitive
- pan-AKT kinase inhibition potency (AKT isoforms; reversible, ATP-competitive): low-nanomolar

Structure (SMILES): NC1(C(=O)N[C@@H](CCO)c2ccc(Cl)cc2)CCN(c2ncnc3[nH]ccc23)CC1 [Capivasertib, 4-amino-N-[(1S)-1-(4-chlorophenyl)-3-hydroxypropyl]-1-(7H-pyrrolo[2,3-d]pyrimidin-4-yl)piperidine-4-carboxamide]
- binding to and inhibition of AKT isoforms (AKT isoforms): binds to and inhibits all AKT isoforms

Structure (SMILES): O=C1CC[C@H](N2Cc3cc(N4CCN(CC5CCN(c6ccc([C@@H]7c8ccc(O)cc8CC[C@@H]7c7ccccc7)cc6)CC5)CC4)ccc3C2=O)C(=O)N1 [Compound A, (S)-3-(5-(4-((1-(4-((1R,2S)-6-hydroxy-2-phenyl-1,2,3,4-tetrahydronaphthalen-1-yl)phenyl)piperidin-4-yl)methyl)piperazin-1-yl)-1-oxoisoindolin-2-yl)piperidine-2,6-dione]
- permeability [1]: low permeability
- solubility [1]: low solubility
- synergy on cell viability (MCF7 cells; combination with afuresertib): evidence of synergy
- synergy on cell viability (MCF7 cells; combination with capivasertib): evidence of synergy

Structure (SMILES): O=C1CC[C@@H](N2Cc3cc(N4CCN(CC5CCN(c6ccc([C@@H]7c8ccc(O)cc8CC[C@@H]7c7ccccc7)cc6)CC5)CC4)ccc3C2=O)C(=O)N1 [Compound C]
- degradation of the ER (ER): does not degrade the ER
- exposure of Compound C compared to Compound A [2]: < 26%
